For 26 compounds, IC50 results are on record in US6046235A, “Sulfur-containing amino acid derivatives” (Santen Pharmaceutical Co., Ltd., priority 1996, dated 2000).

Molecules are shown by their SMILES.

The assay concerns the target T1, LTA4 hydrolase (Cavia porcellus, UniProt P19602).
T1 construct: Lungs were excised from a Hartley guinea pig; from tissue; host or cells: Hartley guinea pig lung, 100,000×g supernatant, 40-70% ammonium sulfate fraction, dialyzed
T1 sequence (P19602 1-611): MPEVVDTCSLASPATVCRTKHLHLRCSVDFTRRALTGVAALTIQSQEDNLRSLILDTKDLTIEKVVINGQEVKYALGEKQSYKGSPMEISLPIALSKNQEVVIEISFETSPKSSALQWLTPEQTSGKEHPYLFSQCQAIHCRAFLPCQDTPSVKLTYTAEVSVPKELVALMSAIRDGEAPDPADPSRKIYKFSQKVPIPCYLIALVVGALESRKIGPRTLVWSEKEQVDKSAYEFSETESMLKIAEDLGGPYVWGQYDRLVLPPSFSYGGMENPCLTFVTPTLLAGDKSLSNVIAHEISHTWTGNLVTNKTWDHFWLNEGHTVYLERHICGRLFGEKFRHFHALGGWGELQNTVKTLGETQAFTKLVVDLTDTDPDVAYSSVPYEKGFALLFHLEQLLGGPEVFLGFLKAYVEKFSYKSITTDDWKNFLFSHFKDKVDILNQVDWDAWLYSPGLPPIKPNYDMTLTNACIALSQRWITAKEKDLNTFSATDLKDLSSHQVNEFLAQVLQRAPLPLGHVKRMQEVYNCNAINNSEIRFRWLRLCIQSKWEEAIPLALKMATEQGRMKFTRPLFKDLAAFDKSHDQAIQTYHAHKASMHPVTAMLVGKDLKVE
The assay is described as follows: LTA4 hydrolase inhibition (LTB4 formed from LTA4, guinea pig lung enzyme preparation). Type of assay: biochemical. The note with it: Table 2; guinea pig lung enzyme preparation; LTA4 63 μM; 37° C., one minute; pH 7.8; read-out: IC50 (concentration required to inhibit LTA4 hydrolase by 50%). How it is done:
Effects of the present compounds on LTA4 hydrolase were examined according to the method described in the literature.
Lungs were excised from a Hartley guinea pig (body weight: 330 g). The lungs were homogenized in phosphoric acid buffer (50 mM, pH 7.4, containing 1 mM ethylenediaminetetraacetic acid (EDTA) and 1 mM dithiothreitol (DTT) having weight three times that of the lungs under ice-cooling. The homogenate was centrifuged at low speed (800×g) for 20 minutes, centrifuged at high speed (10,000×g) for 20 minutes and ultracentrifuged (100,000×g) for 60 minutes to give a supernatant. The supernatant was brought to 40% saturation by adding a saturated aqueous ammonium sulfate solution (pH 7.0-7.2, containing 1 mM DTT) dropwise under ice-cooling and centrifuged at high speed (10,000×g) for 20 minutes. The resulting supernatant was brought to 70% saturation by adding a saturated aqueous ammonium sulfate solution (pH 7.0-7.2, containing 1 mM DTT) dropwise and centrifuged at high speed (10,000×g) for 20 minutes. The obtained pellet was dissolved in 2 ml of Tris-acetic acid buffer (20 mM, pH 7.8, containing 1 mM DTT) and dialyzed in 2 liters of the solution to give the enzyme preparation.
LTA4 used, which is the substrate, was prepared by hydrolyzing LTA4 methyl ester and dissolved in ethanol.
In order to examine effects of the present compounds on the enzyme preparation, reactions were performed under the following condition using mixed solutions consisting of the composition shown in Table 1.
HEPES buffer 50 mM, pH 7.8
Enzyme preparation 0.4-0.6 mg protein
Aqueous DTT solution 3 mM
The above-mentioned solution (50 μl ) was incubated at 37° C. for one minute. To the reaction mixture was added 100 μl of a mixed liquid of acetonitrile-ethanol-acetic acid (150:50:3, volume ratio) under ice-cooling. The mixture was allowed to stand at -20° C. for 30 minutes and centrifuged at high speed (10,000×g) for five minutes to give a supernatant. An amount of LTB4 produced in the supernatant was measured by high-speed liquid chromatography.
The degree of the inhibitory effect of each test compound on LTA4 hydrolase is expressed by the inhibition rate calculated by the following equation. [formula]
A: amount of LTB4 formed in the absence of the test compound
B: amount of LTB4 formed in the presence of the test compound
Experiments were carried out under the same conditions as those of the above-mentioned "Pharmacological Test".
As to `CCc1ccc(CSC[C@H](NC(=O)[C@H](C)CSC(=O)c2ccccc2)C(=O)O)cc1` [Compound No. 1-8, (2R)-2-[(2S)-3-(Benzoylthio)-2-methylpropionylamino]-3-(4-ethylbenzylthio)propionic acid], the IC50 is 120 nM. Take `CCCc1ccc(CSC[C@H](NC(=O)[C@H](C)CSC(=O)c2ccccc2)C(=O)O)cc1` [Compound No. 1-9, (2R)-2-[(2S)-3-(Benzoylthio)-2-methylpropionylamino]-3-(4-propylbenzylthio)propionic acid]: the IC50 was determined as 170 nM. As for `CC(C)c1ccc(CSC[C@H](NC(=O)[C@H](C)CSC(=O)c2ccccc2)C(=O)O)cc1` [Compound No. 1-10, (2R)-2-[(2S)-3-(Benzoylthio)-2-methylpropionylamino]-3-(4-isopropylbenzylthio)propionic acid], the IC50 was 120 nM. As to `C[C@H](CSC(=O)c1ccccc1)C(=O)N[C@@H](CSCc1ccc(C(C)(C)C)cc1)C(=O)O` [Compound No. 1-11, (2R)-2-[(2S)-3-(Benzoylthio)-2-methylpropionylamino]-3-(4-tert-butylbenzylthio) propionic acid], the IC50 was 32 nM. The value for `C[C@H](CSC(=O)c1ccccc1)C(=O)N[C@@H](CSCc1ccc(C(F)(F)F)cc1)C(=O)O` [Compound No. 1-13, (2R)-2-[(2S)-3-(Benzoylthio)-2-methylpropionylamino]-3-(4-trifluoromethylbenzylthio)propionic acid] was 100 nM; that for `CSc1ccc(CSC[C@H](NC(=O)[C@H](C)CSC(=O)c2ccccc2)C(=O)O)cc1` [Compound No. 1-16, (2R)-2-[(2S)-3-(Benzoylthio)-2-methylpropionylamino]-3-(4-methylthiobenzylthio)propionic acid] was 110 nM.

With `C[C@H](CSC(=O)c1ccccc1)C(=O)N[C@@H](CSCc1ccc(OC(F)(F)F)cc1)C(=O)O` [Compound No. 1-18, (2R)-2-[(2S)-3-(Benzoylthio)-2-methylpropionylamino]-3-(4-trifluoromethoxybenzylthio)propionic acid], the IC50 was 100 nM.

Regarding `C[C@H](CSC(=O)c1ccccc1)C(=O)N[C@@H](CSCc1ccc(Cl)cc1)C(=O)O` [Compound No. 1-23, (2R)-2-[(2S)-3-(Benzoylthio)-2-methylpropionylamino]-3-(4-chlorobenzylthio)propionic acid], the IC50 was 300 nM.

In the case of `C[C@H](CSC(=O)c1ccccc1)C(=O)N[C@@H](CSCc1ccc(Br)cc1)C(=O)O` [Compound No. 1-24, (2R)-2-[(2S)-3-(Benzoylthio)-2-methylpropionylamino]-3-(4-bromobenzylthio)propionic acid], the IC50 came out at 310 nM. Consider `C[C@H](CSC(=O)c1ccccc1)C(=O)N[C@@H](CSCc1ccc(I)cc1)C(=O)O` [Compound No. 1-25, (2R)-2-[(2S)-3-(Benzoylthio)-2-methylpropionylamino]-3-(4-iodobenzylthio)propionic acid], for which the IC50 was 51 nM. Take `C[C@H](CSC(=O)c1ccccc1)C(=O)N[C@@H](CSCc1ccc(S(C)(=O)=O)cc1)C(=O)O` [Compound No. 1-26, (2R)-2-[(2S)-3-(Benzoylthio)-2-methylpropionylamino]-3-(4-methylsulfonylbenzylthio)propionic acid]: the IC50 came to 200 nM.

Consider `C[C@H](CSC(=O)c1ccccc1)C(=O)N[C@@H](CSCc1ccc([N+](=O)[O-])cc1)C(=O)O` [Compound No. 1-28, (2R)-2-[(2S)-3-(Benzoylthio)-2-methylpropionylamino]-3-(4-nitrobenzylthio)propionic acid], for which the IC50 is 290 nM.

On to `CCc1ccc(CSC[C@H](NC(=O)[C@H](C)CS)C(=O)O)cc1` [Compound No. 2-8, (2R)-3-(4-Ethylbenzylthio)-2-[(2S)-3-mercapto-2-methylpropionylamino]propionic acid], for which the IC50 is 280 nM. Regarding `CCCc1ccc(CSC[C@H](NC(=O)[C@H](C)CS)C(=O)O)cc1` [Compound No. 2-9, (2R)-2-[(2S)-3-Mercapto-2-methylpropionylamino]-3-(4-propylbenzylthio)propionic acid], the IC50 amounted to 72 nM. `CC(C)c1ccc(CSC[C@H](NC(=O)[C@H](C)CS)C(=O)O)cc1` [Compound No. 2-10, (2R)-3-(4-Isopropylbenzylthio)-2-[(2S)-3-mercapto-2-methylpropionylamino]propionic acid]: the IC50 was 200 nM. For the compound `C[C@H](CS)C(=O)N[C@@H](CSCc1ccc(C(C)(C)C)cc1)C(=O)O` [Compound No. 2-11, (2R)-3-(4-tert-Butylbenzylthio)-2-[(2S)-3-mercapto-2-methylpropionylamino]propionic acid], the IC50 was determined as 24 nM. With `CC(CS)C(=O)N[C@@H](CSCc1ccc(C(C)(C)C)cc1)C(=O)O` (stereo partly drawn) [Compound No. 2-12, (2R)-3-(4-tert-Butylbenzylthio)-2-[(2RS)-3-mercapto-2-5 methylpropionylamino]propionic acid], the IC50 is 58 nM. The same measure for `C[C@H](CS)C(=O)N[C@@H](CSCc1ccc(C(F)(F)F)cc1)C(=O)O` [Compound No. 2-13, (2R)-2-[(2S)-3-Mercapto-2-methylpropionylamino]-3-(4-trifluoromethylbenzylthio)propionic acid]: 140 nM; for `CSc1ccc(CSC[C@H](NC(=O)[C@H](C)CS)C(=O)O)cc1` [Compound No. 2-16, (2R)-2-[(2S)-3-Mercapto-2-methylpropionylamino]-3-(4-methylthiobenzylthio)propionic acid]: 46 nM. On to `C[C@H](CS)C(=O)N[C@@H](CSCc1ccc(I)cc1)C(=O)O` [Compound No. 2-25, (2R)-3-(4-Iodobenzylthio)-2-[(2S)-3-mercapto-2-methylpropionylamino]propionic acid], for which the IC50 amounted to 15 nM. As to `C[C@H](CS)C(=O)N[C@@H](CSCc1ccc(S(C)(=O)=O)cc1)C(=O)O` [Compound No. 2-26, (2R)-2-[(2S)-3-Mercapto-2-methylpropionylamino]-3-(4-methylsulfonylbenzylthio)propionic acid], the IC50 amounted to 160 nM. As to `CC(C)c1ccc(C(C)SC[C@H](NC(=O)[C@H](C)CS)C(=O)O)cc1` (stereo partly drawn) [Compound No. 2-30, (2R)-2-[(2S)-3-Mercapto-2-methylpropionylamino]-3-[(α-methyl-4-isopropyl)benzylthio]propionic acid], the IC50 was determined as 55 nM. `CC(C)c1ccc(C(C)(C)SC[C@H](NC(=O)[C@H](C)CS)C(=O)O)cc1` [Compound No. 2-32, (2R)-2-[(2S)-3-Mercapto-2-methylpropionylamino]-3-[(α,α-dimethyl-4-isopropyl)benzylthio]propionic acid]: the IC50 is 25 nM. Regarding `CCC(SC[C@H](NC(=O)[C@H](C)CS)C(=O)O)c1ccc(C(C)C)cc1` (stereo partly drawn) [Compound No. 2-33, (2R)-3-[(α-Ethyl-4-isopropyl)benzylthio]-2-[(2S)-3-mercapto-2-methylpropionylamino]propionic acid], the IC50 is 67 nM. For the compound `CC(SC[C@H](NC(=O)[C@H](C)CS)C(=O)O)c1ccc(C(C)(C)C)cc1` (stereo partly drawn) [Compound No. 2-34, (2R)-3-[(4-tert-Butyl-α-methyl)benzylthio]-2-[(2R)-3-mercapto-2-methylpropionylamino]propionic acid], the IC50 is 68 nM. With `C[C@H](CS)C(=O)N[C@@H](CSCc1ccc(C2CCCCC2)cc1)C(=O)O` [Compound No. 2-35, (2R)-3-(4-Cyclohexylbenzylthio)-2-[(2S)-3-mercapto-2-methylpropionylamino]propionic acid], the IC50 was 79 nM.
